Results as given in PubChem BioAssay AID248 (DTP/NCI, 2004).
Values joined by “and” are separate entries in the source; they are usually repeats but may differ in a detail not shown here. Equal entries are not always repeated. Toxic doses and inconclusive results are not listed. No stated cut-off is given here; in the data, active means T/C of 150% or more; inactive means T/C below 125%.

Test system: L1210 leukemia ip in BDF1 mice, survival T/C
Assay: NCI In Vivo Anticancer Drug Screen. Data for tumor model L1210 Leukemia (intraperitoneal) in B6D2F1 (BDF1) mice
Settings: endpoint: mean survival time, higher = longer survival
Procedure, shortened: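 Antitumor effect is assessed in tumor-bearing animals. Survival in the compound arm is compared with a vehicle-dosed control arm and expressed as their quotient.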

[1] = dose: 12.5 mg/kg/injection, schedule: Q04DX003 (ip), vehicle: saline with Tween-80
[2] = dose: 100.0 mg/kg/injection, schedule: Q01DX001 (ip), vehicle: saline
[3] = dose: 200.0 mg/kg/injection, schedule: Q01DX001 (ip), vehicle: saline
[4] = dose: 400.0 mg/kg/injection, schedule: Q01DX001 (ip), vehicle: saline
[5] = dose: 100.0 mg/kg/injection, schedule: Q01DX009 (ip), vehicle: Klucel (hydroxypropylcellulose) (HPC)
[6] = dose: 100.0 mg/kg/injection, schedule: Q04DX003 (ip), vehicle: Klucel (hydroxypropylcellulose) (HPC)
[7] = dose: 200.0 mg/kg/injection, schedule: Q01DX009 (ip), vehicle: Klucel (hydroxypropylcellulose) (HPC)
[8] = dose: 200.0 mg/kg/injection, schedule: Q04DX003 (ip), vehicle: Klucel (hydroxypropylcellulose) (HPC)
[9] = dose: 400.0 mg/kg/injection, schedule: Q01DX009 (ip), vehicle: Klucel (hydroxypropylcellulose) (HPC)
[10] = dose: 400.0 mg/kg/injection, schedule: Q04DX003 (ip), vehicle: Klucel (hydroxypropylcellulose) (HPC)
[11] = dose: 50.0 mg/kg/injection, schedule: Q01DX001 (ip), vehicle: saline
[12] = dose: 100.0 mg/kg/injection, schedule: Q04DX003 (ip), vehicle: saline with Tween-80
[13] = dose: 200.0 mg/kg/injection, schedule: Q04DX003 (ip), vehicle: saline with Tween-80
[14] = dose: 400.0 mg/kg/injection, schedule: Q04DX003 (ip), vehicle: saline with Tween-80
[15] = dose: 25.0 mg/kg/injection, schedule: Q04DX003 (ip), vehicle: saline

Measured: T/C

O=C(Nc1ccc(C2=NCCN2)cc1)Nc1cccc(NC(=O)Nc2cccc(C3=NCCN3)c2)c1
inactive: dose: 1.0 mg/kg/injection, schedule: Q01DX Z (ip), vehicle: carboxymethylcellulose (CMC) 120 % of control and 90 % of control | dose: 2.0 mg/kg/injection, schedule: Q01DX Z (ip), vehicle: carboxymethylcellulose (CMC) 101 % of control and 107 % of control | dose: 4.0 mg/kg/injection, schedule: Q01DX Z (ip), vehicle: carboxymethylcellulose (CMC) 113 % of control | dose: 31.0 mg/kg/injection, schedule: Q01DX Z (oral), vehicle: water 104 % of control | dose: 62.0 mg/kg/injection, schedule: Q01DX Z (oral), vehicle: water 112 % of control | dose: 125.0 mg/kg/injection, schedule: Q01DX Z (oral), vehicle: water 104 % of control | dose: 250.0 mg/kg/injection, schedule: Q01DX Z (oral), vehicle: water 102 % of control
121 % of control and 244 % of control: dose: 8.0 mg/kg/injection, schedule: Q01DX Z (ip), vehicle: carboxymethylcellulose (CMC)
active: dose: 8.0 mg/kg/injection, schedule: Q01DX Z (ip), vehicle: water 286 % of control | dose: 16.0 mg/kg/injection, schedule: Q01DX Z (ip), vehicle: carboxymethylcellulose (CMC) 332 % of control | dose: 16.0 mg/kg/injection, schedule: Q01DX Z (ip), vehicle: water 172 % of control

Nc1ccc(N=Nc2ccccc2)cc1
inactive: dose: 50.0 mg/kg/injection, schedule: Q04DX002 (ip), vehicle: Klucel (hydroxypropylcellulose) (HPC) 105 % of control | dose: 100.0 mg/kg/injection, schedule: Q04DX002 (ip), vehicle: Klucel (hydroxypropylcellulose) (HPC) 105 % of control | dose: 200.0 mg/kg/injection, schedule: Q04DX002 (ip), vehicle: Klucel (hydroxypropylcellulose) (HPC) 97 % of control and 115 % of control | dose: 400.0 mg/kg/injection, schedule: Q04DX002 (ip), vehicle: Klucel (hydroxypropylcellulose) (HPC) 112 % of control

C=C1C(=O)OC2C1C(O)CC(C)(O)C1CC=C(C)C21 (centres undefined)
inactive: dose: 100.0 mg/kg/injection, schedule: Q04DX002 (ip), vehicle: saline 102 % of control | dose: 200.0 mg/kg/injection, schedule: Q04DX002 (ip), vehicle: saline 102 % of control | dose: 400.0 mg/kg/injection, schedule: Q04DX002 (ip), vehicle: saline 94 % of control

O=C(c1ccccc1)C1(c2ccccc2)OP(c2ccccc2)(c2ccccc2)(c2ccccc2)CC1c1ccccc1 (centres undefined)
inactive: [1] 90 % of control | dose: 25.0 mg/kg/injection, schedule: Q04DX003 (ip), vehicle: saline with Tween-80 92 % of control

CCOC(=O)/C=C(/Nc1ccc(OC)cc1[N+](=O)[O-])C(=O)OCC
inactive: [2] 95 % of control | [3] 95 % of control | [4] 104 % of control

CCCCCCCCCCC(=O)OCC#CC#CCOC(=O)CCCCCCCCCC
inactive: [5] 97 % of control | [6] 103 % of control | [7] 98 % of control | [8] 92 % of control | [9] 101 % of control | [10] 91 % of control

COC(=O)Cc1oc(=O)n(-c2ccccc2)c(=O)c1C(=O)OC
inactive: dose: 12.5 mg/kg/injection, schedule: Q04DX002 (ip), vehicle: gum acacia 94 % of control | dose: 25.0 mg/kg/injection, schedule: Q04DX002 (ip), vehicle: gum acacia 116 % of control | dose: 50.0 mg/kg/injection, schedule: Q04DX002 (ip), vehicle: gum acacia 108 % of control

CS(=O)(=O)OCCN(CCOS(C)(=O)=O)c1cccc(C(F)(F)F)c1
inactive: dose: 5.0 mg/kg/injection, schedule: Q01DX001 (ip), vehicle: saline 96 % of control | dose: 10.0 mg/kg/injection, schedule: Q01DX001 (ip), vehicle: saline 100 % of control | dose: 11.0 mg/kg/injection, schedule: Q01DX015 (ip), vehicle: saline 101 % of control | dose: 17.0 mg/kg/injection, schedule: Q01DX015 (ip), vehicle: saline 110 % of control | dose: 20.0 mg/kg/injection, schedule: Q01DX001 (ip), vehicle: saline 102 % of control | dose: 25.0 mg/kg/injection, schedule: Q01DX015 (ip), vehicle: saline 116 % of control | [11] 124 % of control | [2] 124 % of control | [3] 120 % of control | [4] 86 % of control

Cc1ccc(C(=O)c2ccc3c4c(cccc24)CC3)cc1
inactive: [6] 112 % of control | [8] 88 % of control | [10] 100 % of control

CC(=O)Nc1ccc(/C=N/Nc2c3ccccc3nc3ccccc23)cc1
inactive: [2] 108 % of control

C=CC(=O)c1c(O)cc(O)c2c1C(C)C(=O)O2 (centres undefined)
inactive: [11] 104 % of control | dose: 75.0 mg/kg/injection, schedule: Q01DX009 (ip), vehicle: Klucel (hydroxypropylcellulose) (HPC) 89 % of control | [2] 101 % of control | [6] 106 % of control | [3] 104 % of control

CC(=O)/C(C)=N/Nc1ccccc1
inactive: [12] 101 % of control | [13] 106 % of control | [14] 106 % of control

CCCCCCCCCCCCCCCCOc1ccc(S(=O)(=O)Nc2cc(C(=O)OC)cc(C(=O)OC)c2)cc1N
inactive: [12] 97 % of control | [13] 90 % of control | [14] 90 % of control

CNC(=O)Oc1cccc(NC(=O)OC2CCCCC2)c1
inactive: dose: 100.0 mg/kg/injection, schedule: Q01DX009 (ip), vehicle: saline with Tween-80 89 % of control | dose: 200.0 mg/kg/injection, schedule: Q01DX009 (ip), vehicle: saline with Tween-80 97 % of control | dose: 400.0 mg/kg/injection, schedule: Q01DX009 (ip), vehicle: saline with Tween-80 89 % of control

O=C1O/C(=C/Br)C=C1Br
inactive: dose: 3.12 mg/kg/injection, schedule: Q04DX003 (ip), vehicle: saline with Tween-80 95 % of control | dose: 6.25 mg/kg/injection, schedule: Q04DX003 (ip), vehicle: saline with Tween-80 92 % of control | [1] 92 % of control | dose: 12.5 mg/kg/injection, schedule: Q04DX003 (ip), vehicle: saline 100 % of control | [15] 97 % of control

Cc1ccc(-n2c(=O)c(N=Nc3ccc(Cl)cc3)c(O)n(-c3ccccc3C)c2=S)cc1
inactive: dose: 100.0 mg/kg/injection, schedule: Q01DX001 (ip), vehicle: Klucel (hydroxypropylcellulose) (HPC) 97 % of control | dose: 200.0 mg/kg/injection, schedule: Q01DX001 (ip), vehicle: Klucel (hydroxypropylcellulose) (HPC) 87 % of control | dose: 400.0 mg/kg/injection, schedule: Q01DX001 (ip), vehicle: Klucel (hydroxypropylcellulose) (HPC) 92 % of control

C#CC[N+](CC)(CC)CC
inactive: dose: 25.0 mg/kg/injection, schedule: Q01DX001 (ip), vehicle: saline 100 % of control | dose: 25.0 mg/kg/injection, schedule: Q01DX009 (ip), vehicle: saline 106 % of control and 89 % of control | dose: 25.0 mg/kg/injection, schedule: Q04DX002 (ip), vehicle: saline 95 % of control and 97 % of control | [15] 99 % of control | [11] 100 % of control | dose: 50.0 mg/kg/injection, schedule: Q01DX009 (ip), vehicle: saline 98 % of control and 106 % of control | dose: 50.0 mg/kg/injection, schedule: Q04DX002 (ip), vehicle: saline 107 % of control and 122 % of control | dose: 50.0 mg/kg/injection, schedule: Q04DX003 (ip), vehicle: saline 102 % of control | [2] 105 % of control and 110 % of control | dose: 100.0 mg/kg/injection, schedule: Q04DX003 (ip), vehicle: saline 103 % of control

C[Si](C)(C)Cc1ccccc1
inactive: dose: 50.0 mg/kg/injection, schedule: Q01DX001 (ip), vehicle: carboxymethylcellulose (CMC) 93 % of control | dose: 200.0 mg/kg/injection, schedule: Q01DX001 (ip), vehicle: carboxymethylcellulose (CMC) 95 % of control

c1ccc(CC2(Cc3ccccc3)N=C(c3ccccc3)C(c3ccccc3)=N2)cc1
inactive: [5] 103 % of control | [6] 102 % of control | [7] 97 % of control | [8] 103 % of control | [9] 98 % of control | [10] 97 % of control

O=[N+]([O-])c1ccc(N2CCCC2)nc1
inactive: dose: 100.0 mg/kg/injection, schedule: Q01DX001 (ip), vehicle: saline with Tween-80 107 % of control | dose: 200.0 mg/kg/injection, schedule: Q01DX001 (ip), vehicle: saline with Tween-80 93 % of control | dose: 400.0 mg/kg/injection, schedule: Q01DX001 (ip), vehicle: saline with Tween-80 100 % of control
